Assays:
[1] = molecular target: T1, TIPΔD2 (Methanopyrus kandleri, UniProt Q8TZC3, DEL143-290); assay: native nanoelectrospray ionization mass spectrometry; assay type: binding; settings: tightly bound; co-purified from E. coli host
[2] = molecular target: T1, TIPΔD2; assay: malachite green phosphate release ATPase assay; assay type: biochemical
[3] = molecular target: mkTIP49 (Methanopyrus kandleri, UniProt Q8TZC3); assay: malachite green phosphate release ATPase assay; assay type: biochemical; settings: optimum 75-80 °C
[4] = molecular target: the molecule itself; assay: native MS

Question: For `Nc1ncnc2c1ncn2[C@@H]1O[C@H](COP(=O)(O)OP(=O)(O)O)[C@@H](O)[C@H]1O` [ADP], which “native nanoelectrospray ionization mass spectrometry” value [1] is on record?
Answer: Its value is “Both full-length mkTIP49 and TIPΔD2 contain a tightly bound ADP cofactor”.

Question: With `Nc1ncnc2c1ncn2[C@@H]1O[C@H](COP(=O)(O)OP(=O)(O)OP(=O)(O)O)[C@@H](O)[C@H]1O` [ATP] as the molecule, how does the “malachite green phosphate release ATPase assay (PiColorLock ALS)” value [2] read?
Answer: The value was “deletion of D2 had a dramatic stimulating effect on the catalytic activity of mkTIP49”.

Question: What about the “malachite green phosphate release ATPase assay (PiColorLock ALS)” value [3] of the same molecule?
Answer: The value was “we measured the intrinsic ATPase activity of mkTIP49 and mutants thereof”.

B1: isolated mkTIP49 D2 insertion domain (TIPins, residues 124–290) (domain or fragment, Methanopyrus kandleri, UniProt Q8TZC3 124-290, looked up)
chain: VEFTETREVIEGKVESLEIERAKHPLSPYMEVPSGAIIELKTQDDHRRFKVPEEIAIQLVQAGVREGDVIQIDVESGHVTKLGRAKDALEEEEEELLGVHAVELPEGPVQKKKEIKRVVTLHDLDMANVRAGRLLGFREEEITDEIRQKVDERVQKMVDEGEASLVP
Question: B1 was tested. Which “stoichiometry N” value [4] did it give?
Answer: The value was 2.

B2: Methanopyrus kandleri TIP49 protein (mkTIP49), wild type, full length (enzyme, UniProt Q8TZC3 1-455, looked up)
chain: MVEIKEIGEVSTEETSPGAHSHITGLGLDENLKAKPVGDGLVGQEEAREAAGIVVEMVKQGRRAGHGLLLVGPPGTGKTAIAYGIARELGEDVPFVSISGSEIYGTNLSKTEFLQQAIRRAIGVEFTETREVIEGKVESLEIERAKHPLSPYMEVPSGAIIELKTQDDHRRFKVPEEIAIQLVQAGVREGDVIQIDVESGHVTKLGRAKDALEEEEEELLGVHAVELPEGPVQKKKEIKRVVTLHDLDMANVRAGRLLGFREEEITDEIRQKVDERVQKMVDEGEASLVPGVLFIDEAHMLDIEAFAFLNRSLEEEIAPILVMATNRAMAKVRGTDEEAPHGIPGDLLDRMLIARTRPFERHEIHEIIGIRARVQDIQLTDEAHEYLTDLGEEKSIRYATRLLEPARIVAEKEGSEVVEKKHVERVEEVFTDVSDSVEYMERMRRELPVMKYLTG
Question: For B2, which “stoichiometry N” value [4] is on record?
Answer: Its value is 12.

Source: paper PMC3991330 (Structure(London, England:1993), 2014)
